pEC50: −log10 of the molar value.
Experiments:
human FPR1 receptors = biological target: T1, human FPR1 receptors (Homo sapiens, UniProt P21462); test: FPR1 cyclic adenosine monophosphate (cAMP) assay; type: cell-based; conditions: CHO cells overexpressing human FPR1; forskolin 10 μM, IBMX 200 μM; 30 min at rt; inhibition of cAMP production (HTRF); read-out: hFPR1 cAMP EC50
T1 sequence (P21462 1-350): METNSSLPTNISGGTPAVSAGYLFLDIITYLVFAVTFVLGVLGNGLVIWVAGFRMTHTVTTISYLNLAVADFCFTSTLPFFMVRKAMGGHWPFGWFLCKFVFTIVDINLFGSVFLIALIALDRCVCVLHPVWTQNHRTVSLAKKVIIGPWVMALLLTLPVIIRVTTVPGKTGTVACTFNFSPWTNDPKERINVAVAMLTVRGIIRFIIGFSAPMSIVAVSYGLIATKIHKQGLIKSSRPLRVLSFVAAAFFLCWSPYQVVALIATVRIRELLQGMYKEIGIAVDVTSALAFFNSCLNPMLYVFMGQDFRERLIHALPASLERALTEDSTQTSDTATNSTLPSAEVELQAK
From the text: (§1) N-formyl peptide receptors (FPRs) are a family of chemo attractant receptors that facilitate leukocyte response during inflammation. FPRs belong to the seven-transmembrane G protein-coupled receptor superfamily and are linked to inhibitory G-proteins (Gi). Three family members (FPR1, FPR2 and FPR3) have been identified in humans and are predominantly found in myeloid cells with varied distribution and have also been reported in multiple organs and tissues. After agonist binding, the FPRs activate a multitude of physiological pathways, such as intra cellular signaling transduction, Ca^2+ mobilization and transcription. The family interacts with a diverse set of ligands that includes proteins, polypeptides and fatty acid metabolites which activate both pro-inflammatory and pro-resolution downstream responses. FPR2 and FPR1 Cyclic Adenosine Monophosphate (cAMP) Assays were used to measure the activity of the compounds in this patent.
(§2) FPR2 and FPR1 Cyclic Adenosine Monophosphate (cAMP) Assays. A mixture of forskolin (5 μM final for FPR2 or 10 μM final for FPR1) and IBMX (200 μM final) were added to 384-well Proxiplates (Perkin-Elmer) pre-dotted with test compounds in DMSO (1% final) at final concentrations in the range of 0.020 nM to 100 μM. Chinese Hamster Ovary cells (CHO) overexpressing human FPR1 or human FPR2 receptors were cultured in F-12 (Ham's) medium supplemented with 10% qualified FBS, 250 μg/mL zeocin and 300 μg/mL hygromycin (Life Technologies). Reactions were initiated by adding 2,000 human FPR2 cells per well or 4,000 human FPR1 cells per well in Dulbecco's PBS (with calcium and magnesium) (Life Technologies) supplemented with 0.1% BSA (Perkin-Elmer). The reaction mixtures were incubated for 30 min at rt. The level of intracellular cAMP was determined using the HTRF HiRange cAMP assay reagent kit (Cisbio) according to manufacturer's instruction. Solutions of cryptate conjugated anti-cAMP and d2 flurorophore-labelled cAMP were made in a supplied lysis buffer separately. Upon completion of the reaction, the cells were lysed with equal volume of the d2-cAMP solution and anti-cAMP solution. After a 1-h rt incubation, time-resolved fluorescence intensity was measured using the Envision (Perkin-Elmer) at 400 nm excitation and dual emission at 590 nm and 665 nm. A calibration curve was constructed with an external cAMP standard at concentrations ranging from 1 μM to 0.1 μM by plotting the fluorescent intensity ratio from 665 nm emission to the intensity from the 590 nm emission against cAMP concentrations. The potency and activity of a compound to inhibit cAMP production was then determined by fitting to a 4-parametric logistic equation from a plot of cAMP level versus compound concentrations.
(§3) The examples disclosed below were tested in the FPR2 and FPR1 cAMP assay described above and found having FPR2 and/or FPR1 agonist activity. Table 1 below lists EC50 values in the FPR2 and FPR1 cAMP assays measured for the following examples.

human FPR2 receptors = biological target: T2, human FPR2 receptors (Homo sapiens, UniProt P25090); test: FPR2 cyclic adenosine monophosphate (cAMP) assay; type: cell-based; conditions: CHO cells overexpressing human FPR2; forskolin 5 μM, IBMX 200 μM; 30 min at rt; inhibition of cAMP production (HTRF); read-out: hFPR2 cAMP2 EC50
T2 sequence (P25090 1-351): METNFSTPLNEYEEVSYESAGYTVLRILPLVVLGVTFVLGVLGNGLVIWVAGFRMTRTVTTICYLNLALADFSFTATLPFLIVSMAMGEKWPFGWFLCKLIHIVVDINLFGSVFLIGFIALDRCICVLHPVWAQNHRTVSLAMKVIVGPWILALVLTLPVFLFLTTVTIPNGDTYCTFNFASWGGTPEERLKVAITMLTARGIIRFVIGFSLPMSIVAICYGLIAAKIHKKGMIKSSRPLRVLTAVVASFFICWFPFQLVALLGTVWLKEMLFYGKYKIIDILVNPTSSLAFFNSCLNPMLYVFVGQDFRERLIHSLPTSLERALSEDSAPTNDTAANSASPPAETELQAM
From the text: as §1, §2, §3

| Structure (SMILES) | pEC50 (human FPR1 receptors) | pEC50 (human FPR2 receptors) |
| --- | --- | --- |
| CP(C)(=O)c1ccccc1-c1ccc(N2CCC[C@@H](NC(=O)Nc3ccc(C(F)(F)F)cc3F)C2=O)c(F)c1F [Example 2, 3-[(3R)-1-[2′-(Dimethylphosphoryl)-2,3-difluoro-[1,1′-biphenyl]-4-yl]-2-oxopiperidin-3-yl]-1-[2-fluoro-4-(trifluoromethyl)phenyl] urea] | 6.52 | 9.74 |
| CP(C)(=O)c1ccccc1-c1ccc(N2CCC[C@@H](NC(=O)Nc3ccc(OC(F)(F)F)cc3)C2=O)c(F)c1F [Example 10, 3-[(3R)-1-[2′-(Dimethylphosphoryl)-2,3-difluoro-[1,1′-biphenyl]-4-yl]-2-oxopiperidin-3-yl]-1-[4-(trifluoromethoxy)phenyl] urea] | 6.43 | 8.85 |
| CCP(=O)(CC)c1ccccc1-c1cc(F)c(N2CCC[C@@H](NC(=O)Nc3ccc(Cl)cc3F)C2=O)c(F)c1 [Example 3, 1-(4-Chloro-2-fluorophenyl)-3-[(3R)-1-[2′-(diethylphosphoryl)-3,5-difluoro-[1,1′-biphenyl]-4-yl]-2-oxopiperidin-3-yl]urea] | 6.38 | 9.77 |
| COc1ccc(NC(=O)N[C@@H]2CCCN(c3ccc(-c4ccccc4P(C)(C)=O)c(F)c3F)C2=O)c(F)c1 [Example 6, 3-[(3R)-1-[2′-(Dimethylphosphoryl)-2,3-difluoro-[1,1′-biphenyl]-4-yl]-2-oxopiperidin-3-yl]-1-(2-fluoro-4-methoxyphenyl)urea] | 6.37 | 9.07 |
| CP(C)(=O)c1ccccc1-c1ccc(N2CCC[C@@H](NC(=O)Nc3cnc(Cl)cn3)C2=O)c(F)c1F [Example 8, 1-(5-Chloropyrazin-2-yl)-3-[(3R)-1-[2′-(dimethylphosphoryl)-2,3-difluoro-[1,1′-biphenyl]-4-yl]-2-oxopiperidin-3-yl]urea] | 5.96 | 8.82 |
| CP(C)(=O)c1ccccc1-c1ccc(N2CCC[C@@H](NC(=O)Nc3ncc(Cl)cc3F)C2=O)c(C2CC2)c1 [Example 4, 1-(5-Chloro-3-fluoropyridin-2-yl)-3-[(3R)-1-[3-cyclopropyl-2′-(dimethylphosphoryl)-[1,1′-biphenyl]-4-yl]-2-oxopiperidin-3-yl]urea] | 8.15 | 9.20 |
| CP(C)(=O)c1ccccc1-c1ccc(N2CCC[C@@H](NC(=O)Nc3ncc(Cl)cc3F)C2=O)c(F)c1F [Example 9, 1-(5-Chloro-3-fluoropyridin-2-yl)-3-[(3R)-1-[2′-(dimethylphosphoryl)-2,3-difluoro-[1,1′-biphenyl]-4-yl]-2-oxopiperidin-3-yl]urea] | 5.85 | 8.66 |
| CP(C)(=O)c1ccccc1-c1cc(F)c(N2CCC[C@@H](NC(=O)Nc3ccc(Cl)cc3F)C2=O)c(F)c1 [Example 7, 1-(4-Chloro-2-fluorophenyl)-3-[(3R)-1-[2′-(dimethylphosphoryl)-3,5-difluoro-[1,1′-biphenyl]-4-yl]-2-oxopiperidin-3-yl]urea] | 5.59 | 9.10 |
| CP(C)(=O)c1ccccc1-c1ccc(N2CCC[C@@H](NC(=O)Nc3ccc(Cl)cc3F)C2=O)c(F)c1F [Example 1, (R)-1-(4-Chloro-2-fluorophenyl)-3-(1-(2′-(dimethylphosphoryl)-2,3-difluoro-[1,1′-biphenyl]-4-yl)-2-oxopiperidin-3-yl)urea] | 6.96 | 9.92 |

The remaining lines, values ahead:

| pEC50 (human FPR1 receptors) | pEC50 (human FPR2 receptors) | Structure (SMILES) |
| --- | --- | --- |
| 5.82 | 8.22 | CCP(=O)(CC)c1ccccc1-c1ccc(N2CCC[C@@H](NC(=O)Nc3ncc(Cl)cc3F)C2=O)c(F)c1F [Example 14, 1-(5-Chloro-3-fluoropyridin-2-yl)-3-[(3R)-1-[2′-(diethylphosphoryl)-2,3-difluoro-[1,1′-biphenyl]-4-yl]-2-oxopiperidin-3-yl]urea] |
| < 5.00 | 8.07 | CP(C)(=O)c1ccccc1-c1cc(F)c(N2CCC[C@@H](NC(=O)Nc3cnc(Cl)cn3)C2=O)c(F)c1 [Example 17, 1-(5-Chloropyrazin-2-yl)-3-[(3R)-1-[2′-(dimethylphosphoryl)-3,5-difluoro-[1,1′-biphenyl]-4-yl]-2-oxopiperidin-3-yl]urea] |
| 6.85 | 7.78 | CP(C)(=O)c1ccccc1-c1ccc(N2CCC[C@@H](NC(=O)Nc3ccc(Cl)cc3F)C2=O)cn1 [Example 19, 1-(4-Chloro-2-fluorophenyl)-3-[(3R)-1-{6-[2-(dimethylphosphoryl)phenyl]pyridin-3-yl}-2-oxopiperidin-3-yl]urea] |
| 5.62 | 8.25 | COc1ccc(NC(=O)N[C@@H]2CCCN(c3c(F)cc(-c4ccccc4P(C)(C)=O)cc3F)C2=O)cc1 [Example 13, 3-[(3R)-1-[2′-(Dimethylphosphoryl)-3,5-difluoro-[1,1′-biphenyl]-4-yl]-2-oxopiperidin-3-yl]-1-(4-methoxyphenyl)urea] |
| 5.89 | 8.57 | CP(C)(=O)c1ccccc1-c1ccc(N2CCC[C@@H](NC(=O)Nc3ccc(C(F)(F)F)cn3)C2=O)c(F)c1F [Example 12, 3-[(3R)-1-[2′-(Dimethylphosphoryl)-2,3-difluoro-[1,1′-biphenyl]-4-yl]-2-oxopiperidin-3-yl]-1-[5-(trifluoromethyl)pyridin-2-yl]urea] |
| < 5.00 | 7.66 | CP(C)(=O)c1ccccc1-c1cc(F)c(N2CCC[C@@H](NC(=O)Nc3ccc(OC(F)(F)F)cc3)C2=O)c(F)c1 [Example 21, 3-[(3R)-1-[2′-(Dimethylphosphoryl)-3,5-difluoro-[1,1′-biphenyl]-4-yl]-2-oxopiperidin-3-yl]-1-[4-(trifluoromethoxy)phenyl] urea] |
| < 5.00 | 7.94 | CP(C)(=O)c1ccccc1-c1ccc(N2CCC[C@@H](NC(=O)Nc3ncc(C(F)(F)F)cc3F)C2=O)c(F)c1F [Example 18] |
| < 5.00 | 7.36 | CP(C)(=O)c1ccccc1-c1cc(F)c(N2CCC[C@@H](NC(=O)Nc3ncc(Cl)cc3F)C2=O)c(F)c1 [Example 20, 1-(5-Chloro-3-fluoropyridin-2-yl)-3-[(3R)-1-[2′-(dimethylphosphoryl)-3,5-difluoro-[1,1′-biphenyl]-4-yl]-2-oxopiperidin-3-yl]urea] |
| 5.77 | 8.59 | CP(C)(=O)c1ccccc1-c1cc(F)c(N2CCC[C@@H](NC(=O)Nc3ccc(C(F)(F)F)cc3F)C2=O)c(F)c1 [Example 11, 3-[(3R)-1-[2′-(Dimethylphosphoryl)-3,5-difluoro-[1,1′-biphenyl]-4-yl]-2-oxopiperidin-3-yl]-1-[2-fluoro-4-(trifluoromethyl)phenyl] urea] |
| 5.15 | 8.08 | CCP(=O)(CC)c1ccccc1-c1cc(F)c(N2CCC[C@@H](NC(=O)Nc3ncc(Cl)cc3F)C2=O)c(F)c1 [Example 15, 1-(5-Chloro-3-fluoropyridin-2-yl)-3-[(3R)-1-[2′-(diethylphosphoryl)-3,5-difluoro-[1,1′-biphenyl]-4-yl]-2-oxopiperidin-3-yl]urea] |

Reference: US20220298186A1, “BIARYL DIALKYL PHOSPHINE OXIDE FPR2 AGONISTS” (BRISTOL-MYERS SQUIBB COMPANY, priority 2019, published 2022)
